Data from patent US9133187B2, “Serine/threonine kinase inhibitors” (ARRAY BIOPHARMA INC., priority 2011, dated 2015).

What was measured:
[1] = system: PMA-stimulated P90RSK(Ser380) phosphorylation in HepG2 cells; assay: Cellular P90RSK(Ser380) Phosphorylation Assay; assay type: cell-based; conditions: Homo sapiens, 1.5 h compound incubation, PMA stimulation, pP90RSK(Ser380) normalized to GAPDH, read-out: Cell Assay IC50
Protocol: Inhibition of PMA-stimulated P90RSK(Ser380) phosphorylation was determined by the following in vitro cellular mechanistic assay, which comprises incubating cells with a compound for 1.5 hours and quantifying fluorescent pP90RSK(Ser380) signal on fixed cells and normalizing to GAPDH signal.
Materials and Methods: HepG2 cells were obtained from ATCC and grown in DMEM supplemented with 10% fetal bovine serum. Cells were plated in 96-well plates at 35,000 cells/well and allowed to attach overnight at 37° C./5% CO2. Diluted compounds were then added at a final concentration of 0.5% DMSO. After 1.5 hour compound incubation, cells were stimulated with the addition of PMA (phorbol 12-myristate 13-acetate) at a final concentration of 100 ng/mL; the PMA stimulation was a 30-minute incubation at 37° C./5% CO2. After the 30-minute PMA stimulation, cells were washed with PBS and fixed in 3.7% formaldehyde in PBS at room temperature for 15-20 minutes. This was followed by another wash in PBS and then permeabilization in 100% MeOH at room temperature for 10-15 minutes. Following the permeabilization incubation, cells were washed in PBS/0.05% Tween-20, followed by a block in Odyssey blocking buffer (LI-COR Biosciences) for at least 1 hour. Antibodies to phosphorylated P90RSK(Ser380) (Cell Signaling #9335, rabbit monoclonal) and GAPDH (Fitzgerald 10R-G109a, mouse monoclonal) were added to the cells and incubated overnight at 4° C. pP90RSK(Ser380) antibody was used at a 1:250 dilution; GAPDH was used at a 1:10,000 dilution. After washing with PBS/0.05% Tween-20, the cells were incubated with fluorescently-labeled secondary antibodies (Anti-rabbit-Alexa Flour680, Invitrogen Cat#A21109; Anti-mouse-IRDye800CW, Rockland Inc. Cat#610-131-121) for 1 hour. Both secondary antibodies were used at a 1:1000 dilution. Cells were then washed and analyzed for fluorescence at both wavelengths using the Odyssey Infrared Imaging System (LI-COR Biosciences). Phosphorylated P90RSK(Ser380) signal was normalized to GAPDH signal. Representative date is in TABLE III (infra).

[2] = molecular target: human ERK-2 (Mitogen Activated Kinase 1) (Homo sapiens (Human), UniProt P28482); assay: ERK-2 Enzymatic Assay; assay type: biochemical; conditions: 5 nM ERK-2, 25 μM ATP, Omnia peptide S/T17; read-out: ERK Inhibition IC50
Sequence of human ERK-2 (Mitogen Activated Kinase 1) (P28482 8-360): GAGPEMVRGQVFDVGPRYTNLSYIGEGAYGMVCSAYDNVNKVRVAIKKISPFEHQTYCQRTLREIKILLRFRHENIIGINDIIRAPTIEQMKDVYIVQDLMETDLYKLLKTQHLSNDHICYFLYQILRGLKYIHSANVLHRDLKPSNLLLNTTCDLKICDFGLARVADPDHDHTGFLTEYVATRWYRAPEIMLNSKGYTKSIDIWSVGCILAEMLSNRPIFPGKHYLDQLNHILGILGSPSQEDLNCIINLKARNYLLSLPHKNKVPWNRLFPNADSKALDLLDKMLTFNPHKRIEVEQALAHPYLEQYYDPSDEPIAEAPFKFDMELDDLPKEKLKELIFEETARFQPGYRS
Protocol: Compounds were tested in an enzymatic assay using human ERK-2 (Mitogen Activated Kinase 1), recombinantly expressed as an n-terminal 6-His fusion protein in E. coli and corresponding to aa 8-360. The substrate used was the fluorescent Omnia peptide S/T17 (Invitrogen of Carlsbad, Calif.; Cat. KNZ1171C). Test compounds were diluted in DMSO in 3-fold serial dilutions at 100× final concentrations. […] The assay was run at ambient temperature in a white 384-well polypropylene plate (Nunc, Inc of Naperville, Ill.; Cat. 267462) collecting data every 50 seconds for approximately 30 minutes on an Envision plate reader (PerkinElmer, Inc. of Waltham, Mass.); Excitation 340 nm/Emission 495 nm. The data collected from each well was fit to a straight line and the resulting rates were used to calculate percent of control. Percent of control was plotted against compound concentration and IC50 values were determined using a four-parameter fit.

Row | SMILES | IC50 [1] [µM] | IC50 [2] [µM]
1 | C[C@@H](NC(=O)N1CCc2cnc(NC3CCN(C)CC3)nc2C1)c1ccc(Cl)c(Cl)c1 [Compound I-83, (R)—N-(1-(3,4-dichlorophenyl)ethyl)-2-(1-methylpiperidin-4-ylamino)-5,6-dihydropyrido[3,4-d]pyrimidine-7(8H)-carboxamide] | 2.5 | 0.113
2 | C[C@H](Cc1ccc(Cl)cc1)NC(=O)N1CCc2cnc(N[C@@H](C)CO)nc2C1 [II-136, 2-(2-Hydroxy-1-methyl-ethylamino)-5,8-dihydro-6H-pyrido[3,4-d]pyrimidine-7-carboxylic acid [2-(4-chloro-phenyl)-1-methyl-ethyl]-amide] | 0.464 | 0.0022
3 | Cc1noc(C)c1Nc1ncc2c(n1)CN(C(=O)N[C@H](CO)c1ccc(F)c(Cl)c1)CC2 [II-34, 2-(3,5-Dimethyl-isoxazol-4-ylamino)-5,8-dihydro-6H-pyrido[3,4-d]pyrimidine-7-carboxylic acid [(S)-1-(3-chloro-4-fluoro-phenyl)-2-hydroxy-ethyl]-amide] | 13.2 | 0.0259
4 | Cn1ccc(C(NC(=O)N2CCc3cnc(NC4CCOCC4)nc3C2)c2ccc(Cl)c(F)c2)n1 (stereo not shown) [Compound I-3, N-((4-chloro-3-fluorophenyl)(1-methyl-1H-pyrazol-3-yl)methyl)-2-(tetrahydro-2H-pyran-4-ylamino)-5,6-dihydropyrido[3,4-d]pyrimidine-7(8H)-carboxamide] | 0.101 | 0.0038
5 | COCCNC[C@@H](NC(=O)N1CCc2cnc(NC(C)C)nc2C1)c1ccc(F)c(Cl)c1 [II-41, 2-Isopropylamino-5,8-dihydro-6H-pyrido[3,4-d]pyrimidine-7-carboxylic acid [(S)-1-(3-chloro-4-fluoro-phenyl)-2-(2-methoxy-ethylamino)-ethyl]-amide] | 1.9 | 0.0154
6 | CCOc1cc(Nc2ncc3c(n2)CN(C(=O)N[C@H](C)c2ccc(Cl)c(Cl)c2)CC3)ccn1 [Compound I-35, (R)—N-(1-(3,4-dichlorophenyl)ethyl)-2-(2-ethoxypyridin-4-ylamino)-5,6-dihydropyrido[3,4-d]pyrimidine-7(8H)-carboxamide] | 0.0913 | 0.0056
7 | O=C(N[C@H](CO)c1ccc(F)c(Cl)c1)N1CCc2cnc(Nc3ccc(Cl)c(F)c3)nc2C1 [II-61, 2-(4-Chloro-3-fluoro-phenylamino)-5,8-dihydro-6H-pyrido[3,4-d]pyrimidine-7-carboxylic acid [(S)-1-(3-chloro-4-fluoro-phenyl)-2-hydroxy-ethyl]-amide] | 21.3 | 0.21
8 | C[C@@H](CO)Nc1ncc2c(n1)CN(C(=O)NC1CNCC1c1ccc(C(F)(F)F)cc1)CC2 (mixture of isomers) [II-171, 2-(2-Hydroxy-1-methyl-ethylamino)-5,8-dihydro-6H-pyrido[3,4-d]pyrimidine-7-carboxylic acid [4-(4-trifluoromethyl-phenyl)-pyrrolidin-3-yl]-amide] | 10 | 0.0007
9 | C[C@@H](CO)Nc1ncc2c(n1)CN(C(=O)N[C@@H](c1ccc(Cl)c(Cl)c1)C(F)(F)F)CC2 [Compound I-23, N—((S)-1-(3,4-dichlorophenyl)-2,2,2-trifluoroethyl)-2-((S)-1-hydroxypropan-2-ylamino)-5,6-dihydropyrido[3,4-d]pyrimidine-7(8H)-carboxamide] | 0.493 | 0.0032
10 | Cc1nccc(Nc2ncc3c(n2)CN(C(=O)N[C@H](C)c2ccc(Cl)c(Cl)c2)CC3)n1 [II-126, 2-(2-Methyl-pyrimidin-4-ylamino)-5,8-dihydro-6H-pyrido[3,4-d]pyrimidine-7-carboxylic acid [(R)-1-(3,4-dichloro-phenyl)-ethyl]-amide] | 0.141 | 0.0069
11 | C[C@@H](NC(=O)N1Cc2nc(NC3CCOCC3)ncc2C(F)(F)C1)c1ccc(Cl)c(Cl)c1 [Compound I-50, (R)—N-(1-(3,4-dichlorophenyl)ethyl)-5,5-difluoro-2-(tetrahydro-2H-pyran-4-ylamino)-5,6-dihydropyrido[3,4-d]pyrimidine-7(8H)-carboxamide] | 0.0283 | 0.0016
12 | C[C@@H](CO)Nc1ncc2c(n1)CN(C(=O)NCc1cccc3cc[nH]c13)CC2 [II-200, 2-((S)-2-Hydroxy-1-methyl-ethylamino)-5,8-dihydro-6H-pyrido[3,4-d]pyrimidine-7-carboxylic acid (1H-indol-7-ylmethyl)-amide] | 1 | 0.411
13 | CC(CF)Nc1ncc2c(n1)CN(C(=O)N[C@H](CO)c1ccc(Cl)c(Cl)c1)CC2 (stereo partly drawn) [Compound I-60, N—((S)-1-(3,4-dichlorophenyl)-2-hydroxyethyl)-2-(1-fluoropropan-2-ylamino)-5,6-dihydropyrido[3,4-d]pyrimidine-7(8H)-carboxamide] | 0.1 | 0.0033
14 | O=C(NCc1ccc2cc[nH]c2c1)N1CCc2cnc(NC3CCOCC3)nc2C1 [II-223, 2-(Tetrahydro-pyran-4-ylamino)-5,8-dihydro-6H-pyrido[3,4-d]pyrimidine-7-carboxylic acid (1H-indol-6-ylmethyl)-amide] | 0.186 | 0.0057
15 | CS(=O)(=O)CC[C@@H](NC(=O)N1CCc2cnc(NC3CCOCC3)nc2C1)c1ccc(Cl)c(Cl)c1 [Compound I-105, (R)—N-(1-(3,4-dichlorophenyl)-3-(methylsulfonyl)propyl)-2-(tetrahydro-2H-pyran-4-ylamino)-5,6-dihydropyrido[3,4-d]pyrimidine-7(8H)-carboxamide] | 0.101 | 0.0026
16 | O=C(N1CCc2cnc(NC3CCOCC3)nc2C1)N1CCCC1c1nccs1 (stereo not shown) [Compound I-139, (2-(tetrahydro-2H-pyran-4-ylamino)-5,6-dihydropyrido[3,4-d]pyrimidin-7(8H)-yl)(2-(thiazol-2-yl)pyrrolidin-1-yl)methanone] |  | 0.264
17 | O=C(N1CCc2cnc(NC3CCOCC3)nc2C1)N1CCNCC1c1ccccc1 (stereo not shown) [Compound I-141, (2-Phenylpiperazin-1-yl)(2-(tetrahydro-2H-pyran-4-ylamino)-5,6-dihydropyrido[3,4-d]pyrimidin-7(8H)-yl)methanone] |  | 0.108
18 | CC1CC(Nc2ncc3c(n2)CN(C(=O)N[C@H](CO)c2ccc(Cl)c(F)c2)CC3)CCO1 (stereo partly shown) [II-366] | 0.091 | 
19 | CC(C)Nc1ncc2c(n1)CN(C(=O)NC[C@H](c1ccc(C(F)(F)F)c(F)c1)N1CCCC1)CC2 [II-102, 2-Isopropylamino-5,8-dihydro-6H-pyrido[3,4-d]pyrimidine-7-carboxylic acid [(S)-2-(3-fluoro-4-trifluoromethyl-phenyl)-2-pyrrolidin-1-yl-ethyl]-amide] |  | 0.409
20 | CC(C)OC[C@@H](NC(=O)N1CCc2cnc(N[C@H]3CC[C@H](O)C3)nc2C1)c1ccc(F)c(Cl)c1 [II-95, 2-((1S,3S)-3-Hydroxy-cyclopentylamino)-5,8-dihydro-6H-pyrido[3,4-d]pyrimidine-7-carboxylic acid [(S)-1-(3-chloro-4-fluoro-phenyl)-2-isopropoxy-ethyl]-amide] | 0.551 | 
21 | O=C(N[C@H](CO)c1ccc(F)c(Cl)c1)N1CCc2cnc(N[C@H](CO)Cc3ccccc3)nc2C1 [II-17, 2-((S)-1-Hydroxymethyl-2-phenyl-ethylamino)-5,8-dihydro-6H-pyrido[3,4-d]pyrimidine-7-carboxylic acid [(S)-1-(3-chloro-4-fluoro-phenyl)-2-hydroxy-ethyl]-amide] | 1.1 | 
22 | CC(C)Nc1ncc2c(n1)CN(C(=O)N[C@@H](c1ccc(C(F)(F)F)c(F)c1)c1cccc(=O)[nH]1)CC2 [II-99, 2-Isopropylamino-5,8-dihydro-6H-pyrido[3,4-d]pyrimidine-7-carboxylic acid [(S)-(3-fluoro-4-trifluoromethyl-phenyl)-(6-oxo-1,6-dihydro-pyridin-2-yl)-methyl]-amide] | 5.6 | 
